Measurements taken from US20030215391A1, “Fluorescent agents for real-time measurement of organ function” (priority 2003, published 2003).
One block for each compound: values may come before it.

Legend:
[1] = (Aime, 1995); cited from earlier work
[2] = chelate with europium; previous studies (Hemmila, 1984); cited from earlier work
[3] = (Bousquet, 1988); cited from earlier work
[4] = Fluorometric analysis (excitation and emission spectra); type: physicochemical; settings: FIG. 4
Method: For the synthesis of a nile blue-DTPA conjugate, 0.1 g of DTPA dianhydride (ccDPTA) was dissolved in 6 ml of dimethyl sulfoxide (DMSO) in a round bottom flask. Ninety mg of nile blue were dissolved in DMSO and 36 μL of triethyl amine were added, turning the solution purple. The nile blue solution was added drop wise to the solution of ccDTPA while stirring. The solution turned blue. Thirty-eight μL of […] (TEA) were added to the final mixture, turning the solution purple. After mixing, the mixture was heated to 60° C. and stirred for 2 hours. The reaction mixture was then loaded onto a silica gel column and eluted with acetone:ethylacetate. The fractions corresponding to the nile blue-DTPA conjugate were pooled and evaporated, yielding a magenta colored oil. The oil was rechromatographed on a second silica gel column using acetone as eluant. The nile blue-DTPA conjugated fractions were pooled and rotate-evaporated to give a magenta colored oil. […]
The only group of chelating agents known to produce highly soluble and stable lanthanide chelates are the polyamino polyacetic acid analogs. […] The simplest initial approach was to study the fluorescence characteristics of the chelate between Eu and other already commercially available polyaminopoly bis (2-aminoethyl ether) acetic acids. […]

[5] = Solubility in aqueous media at physiological pH; type: physicochemical
From the text: where R may be furoic acid, nicotinic acid, picolinic acid, or some other substituted aromatic acid. The subsituted tetrazacyclododecane (STACD) is produced by reacting the amine groups with a brominated acid. 6-Bromo-picolinic acid, 5-bromo-nicotinic acid, and 5-bromo-furoic acid are all appropriate for prepararing a STACD. However, not all of these molecules are soluble in aqueous media at physiological pH. For example, while the tetrafuroic acid derivative is soluble in physiological fluids, the tetranicotinic acid derivative is not. The derivative should be combined with a solubility enhancer, for example, […], to form a salt which is soluble at pH 7. Other solubility enhancers may also be employed to modify the solubility of the STACD complex.
Magnetic Resonance Imaging Contrast Agent: The molecules of the invention, especially TABFTA, STACD, and their derivatives, can also be used as contrast agents for magnetic resonance imaging (MRI). When chelated with lanthanide ions such as gadolinium (Gd^3+) or […], the resulting paramagnetic compound enhances the relaxation of hydrogen protons, increasing signal intensities in MRI imaging (Bousquet, 1988). The increased signal increases the signal-to-noise ratio, reducing imaging time. In addition, the contrast agent may increase specificity in diagnosis. […]

Compound: O=C(O)CN(CCN(CC(=O)O)CC(=O)O)CCN(CC(=O)O)CC(=O)O [DTPA, diethylenetriaminepentaacetic acid]
- affinity constant (k) [1]: 23

Compound: O=C(O)CN(CCN(CC(=O)O)CC(=O)O)CC(=O)O [EDTA]
- fluorescence of the chelate [2]: essentially non-fluorescent

Compound: O=C([O-])CN1CCN(CC(=O)[O-])CCN(CC(=O)O)CCN(CC(=O)[O-])CC1.[Gd+3] [chelates of DOTA and gadolinium]
- distribution after intravenous injection [3]: extracellular space distribution
- excretion after intravenous injection [3]: excreted only by glomerular filtration

- emission fluorescence wavelength [4]: 695 nm
Compound: CC[N+](CC)=c1ccc2nc3c(cc(N)c4ccccc43)oc-2c1 [nile blue]

- water solubility [5]: water-soluble
Compound: tetraazabycyclofurantetraacetate [TABFTA]
